Results reported in patent publication US5808049A, “Stereospecific 5-fu esters and methods for preparing same” (Director-General of Agency of Industrial Science and …, priority 1994, dated 1998).

Experiments:
[1] = Stereoselective hydrolysis of anticancer agent esters with rat pancreas cancer cells ARIP; conditions: rat, arip cells, pH 7.5
Protocol: (§1) Each of the reaction mixtures was prepared by dissolving 1 mg of the ester in 10 μl of ethanol, and by mixing with it, 90 μl of a 0.1M phosphoric acid buffer (having a pH of 7.5), plus one of the following: 100 μl of a cell suspension, or 20 or 30 μl of whole blood, or 50 μl of tissue homogenate. […] The cells numbers in 100 μl of the cell suspension used in the reaction were as follows: rat liver cancer cells Anr4=7×10^6 ; rat pancreas cancer cells ARIP=8×10^6 ; rat sarcoma cells XC=5×10^6 ; human histiocytic leukemia cells U937=1×10^7 ; human pancreas cancer cells MIA PaCa-2=8×10^6 ; and human intestinum crassum cancer cells Colo 320=1×10^7. Fifty μl of the tissue homogenate corresponded to 20 mg of wet tissue.
(§2) Each of these reaction mixtures was stirred for 12 hours at 30° C. by a magnetic stirrer; then 1.5 μl of 2N HCl was added, to bring the pH to about 2.5, and extraction with 1 ml of ethyl acetate in the presence of a saturated sodium chloride was carried out twice. The ethyl acetate layers of each sample were combined, the volume was adjusted to precisely 2 ml, and it was divided into 1.7 ml and 0.3 ml. The former was concentrated under reduced pressure, and the contained produced carboxylic acid was isolated by thin-layer preparative chromatography. A solution of diazomethane in ether was added to it, to methylate it, and the absolute configuration and the optical purity of the methylated product were determined by high-performance liquid chromatography using a chiral column. The latter 0.3 ml was directly methylated, and then it was concentrated and adjusted to 0.3 ml again, and the methyl ester of the contained produced carboxylic acid was determined quantitatively by gas chromatography, from which the hydrolyzed rate was determined. The column used in the high-performance liquid chromatography was a Chiralcell OJ or OD column (trade name; 4.6×250 mm) manufactured by Daicel; the elution was carried out by using a 10% 2-propanol/hexane mixture; and the flow velocity was 1 or 0.75 ml/min. The column used in the gas chromatography was a capillary column of OV-1 (0.25 mm×25 m), and the analysis temperature was 120° to 180° C.

[2] = tested on: rat pancreas cancer cells ARIP; assay: as above; conditions: ARIP; 12 hours at 30° C., pH 7.5
Protocol: as §1, §2

[3] = Stereoselective hydrolysis of anticancer agent esters with rat whole blood; conditions: pH 7.5
Protocol: as §1, §2

[4] = Stereoselective hydrolysis of anticancer agent esters with rat liver cancer cells Anr4; conditions: rat, anr4 cells, pH 7.5
Protocol: as §1, §2

[5] = tested on: rat liver cancer cells Anr4; assay: as above; conditions: Anr4; 12 hours at 30° C., pH 7.5
Protocol: as §1, §2

[6] = Stereoselective hydrolysis of anticancer agent esters with normal rat pancreas homogenate; conditions: 12 hours at 30° C., pH 7.5
Protocol: as §1, §2

[7] = Stereoselective hydrolysis of anticancer agent esters with human intestinum crassum cancer cells Colo 320; conditions: human, colo 320 cells, pH 7.5
Protocol: as §1, §2

[8] = tested on: human intestinum crassum cancer cells Colo 320; assay: as above; conditions: Colo320; 12 hours at 30° C., pH 7.5
Protocol: as §1, §2

[9] = Stereoselective hydrolysis of anticancer agent esters with rat sarcoma cells XC; conditions: rat, xc cells, pH 7.5
Protocol: as §1, §2

rat sarcoma cells XC = assay: as above; conditions: XC; 12 hours at 30° C., pH 7.5
Protocol: as §1, §2

[10] = Stereoselective hydrolysis of anticancer agent esters with human pancreas cancer cells MIA PaCa-2; conditions: human, mia paca-2 cells, pH 7.5
Protocol: as §1, §2

[11] = tested on: human pancreas cancer cells MIA PaCa-2; assay: as above; conditions: MIA PaCa-2; 12 hours at 30° C., pH 7.5
Protocol: as §1, §2

[12] = Stereoselective hydrolysis of anticancer agent esters with normal rat muscle homogenate; conditions: 12 hours at 30° C., pH 7.5
[13] = Stereoselective hydrolysis of anticancer agent esters with normal rat liver homogenate; conditions: 12 hours at 30° C., pH 7.5
[14] = Stereoselective hydrolysis of anticancer agent esters with human histiocytic leukemia cells U937; conditions: human, u937 cells, pH 7.5
Protocol: as §1, §2

[15] = tested on: human histiocytic leukemia cells U937; assay: as above; conditions: U937; 12 hours at 30° C., pH 7.5
Protocol: as §1, §2

[16] = Stereoselective hydrolysis of anticancer agent esters with human whole blood; conditions: pH 7.5
Protocol: as §1, §2

O=C(OC[C@H]1O[C@@H](n2cc(F)c(=O)[nH]c2=O)[C@H](O)[C@@H]1O)C(Cc1ccccc1)NC(=O)C(F)(F)F (stereo partly drawn) [IIc, 5'-(RS)-(2-trifluoroacetamido-3-phenylpropionyl)-5-fluorouridine]
metabolised at 12 h [1]: 1.9%
enantiomer excess of the carboxylic acid produced by the hydrolysis [2]: > 99 % e.e.
enantiomer excess of the carboxylic acid produced by the hydrolysis ([3]; rat whole blood, 12 hours at 30° C.): 41.8 % e.e.
metabolised at 12 h ([3]; rat, whole blood): 16.3%
metabolised at 12 h [4]: 7.8%
enantiomer excess of the carboxylic acid produced by the hydrolysis [5]: 98.4 % e.e.
enantiomer excess of the carboxylic acid produced by the hydrolysis [6]: > 99 % e.e.
metabolised at 12 h [7]: 13.8%
enantiomer excess of the carboxylic acid produced by the hydrolysis [8]: 64.6 % e.e.
metabolised at 12 h [9]: 3.4%
enantiomer excess of the carboxylic acid produced by the hydrolysis (rat sarcoma cells XC): > 99 % e.e.
metabolised at 12 h [10]: 20.6%
enantiomer excess of the carboxylic acid produced by the hydrolysis [11]: 19.0 % e.e.
enantiomer excess of the carboxylic acid produced by the hydrolysis [12]: 87.8 % e.e.
enantiomer excess of the carboxylic acid produced by the hydrolysis [13]: > 99 % e.e.
metabolised at 12 h [14]: 12.6%
enantiomer excess of the carboxylic acid produced by the hydrolysis [15]: 57.8 % e.e.
enantiomer excess of the carboxylic acid produced by the hydrolysis ([16]; human whole blood, 12 hours at 30° C.): 66.9 % e.e.
metabolised at 12 h ([16]; human, whole blood): 36.1%
